Patent publication US4910203A, “Pteridine compounds” (priority 1984, dated 1990)
Like-named read-outs stand apart in the source and are kept apart here.

Legend:
male Wistar rats [1] = assay: Diuresis test with individual pteridine compounds, intravenous, urine after 2.5 hours; format: in vivo; conditions: 2.5 μmol/kg i.v.; for K^+ -excretion: control 0.609; for Na^+ -excretion: control 0.83; for Volume of urine: control 7.37
Procedure: They were orally given 20 ml/kg of an 0.9% NaCl solution just before the test substance was administered intravenously. […] Injection was into the caudal vein under light ether anasthesia. As a rule six test animals were used per test. […] Analysis was performed as for the determination of potency given above. IA stands for 2,4,7-triamino-6-[4-(2-hydroxy-3-dimethylaminopropoxy)phenyl]-pteridine.

male Wistar rats [2] = conditions: furosemide 8.27 mg/kg i.v. alone; 1.5 hours; mean; control 5.0
Procedure: They were orally given 20 ml/kg of an 0.9% NaCl solution just before the test substance was administered intravenously. […] Injection was into the caudal vein under light ether anasthesia. As a rule six test animals were used per test. The animals were individually placed into diuresis cages and the urine was collected after 1.5 hours. Analysis was performed as for the determination of potency given above. IA stands for 2,4,7-triamino-6-[4-(2-hydroxy-3-dimethylaminopropoxy)phenyl]-pteridine.

male Wistar rats [3] = assay: Diuresis test: ED50 dose response, intravenous, urine electrolytes after 2.5 hours; format: in vivo; conditions: for ED50: Rattus norvegicus, iv, urine collected after 2.5 hours
Procedure: For the tests, male Wistar rats of about 130 g body weight from which food had been withheld for 18 hours were used. […] Intravenous administration for determining K^+ was at dosage intervals for the actiee substance of 0.05, 0.1, 0.2, 0.3, 0.6, 1, and 2 mg/kg: for determining Na^+ at dosage intervals of 0.5, 1, 2, 4, 8, 16 and 20 mg/kg. For the prior art substances compared, the same tests were made and these substances were further administered at 30 mg/kg and 100 mg/kg. Injection was into the caudal vein under light etherization. […] Peroral administration was by means of a stomach tube into the gastrointestinal tract.
Dose response curves were constructed by the use of non-linear regression analysis using the NONLIN computer program of C. Daniel and F. S. Wood in "Fitting Equations to Data" (J. Wiley & Sons, New York, 1980).
The characteristic quantity ED50 (potency) used in determining the diuretic activity is defined as the amount of active substance per kilogram of body weight required to produce a response in 50 percent of the subjects.

[4] = cited from earlier work
[5] = K^+ (potassium-sparing), read-out: ED50 K^+
[6] = Na^+ (natriuretic), read-out: ED50 Na^+

CNCC(O)COc1ccc(-c2nc3c(N)nc(N)nc3nc2N)cc1 (centres unmarked) [IC, 2,4,7-Triamino-6-[4-(2-hydroxy-3-methylaminopropoxy)phenyl]-pteridine]
K^+ -excretion (male Wistar rats [1]): 0.211 mmol/kg | Na^+ -excretion (male Wistar rats [1]): 2.63 mmol/kg | Volume of urine (male Wistar rats [1]): 0.01585 L/kg

NS(=O)(=O)c1cc(C(=O)O)c(NCc2ccco2)cc1Cl [Furosemide, 4-chloro-N-furfuryl-5-sulfamoylanthranilic acid]
Volume of urine (male Wistar rats [2]): 0.0525 L/kg

Nc1nc(N)c2nc(-c3ccc(OCC(O)CN4CCCCC4)cc3)c(N)nc2n1 (centres unmarked) [IF, 2,4,7-Triamino-6-[4-(2-hydroxy-3-piperidinopropoxy)phenyl]-pteridine]
K^+ -excretion (male Wistar rats [1]): 0.191 mmol/kg | Na^+ -excretion (male Wistar rats [1]): 1.95 mmol/kg | Volume of urine (male Wistar rats [1]): 0.01017 L/kg

CN(C)CC(O)COc1ccc(-c2nc3c(N)nc(N)nc3nc2N)cc1 (centres unmarked) [IA, 2,4,7-triamino-6-[4-(2-hydroxy-3-dimethylaminopropoxy)phenyl]-pteridine]
ED50 (male Wistar rats [3]; [5]): 0.24 µmol/kg | ED50 (male Wistar rats [3]; Mg^+2 (magnesium-sparing), read-out: ED50 Mg^+2): 0.4 µmol/kg | ED50 (male Wistar rats [3]; [6]): 9.36 µmol/kg | diuretic efficacy (natriuretic, potassium- and magnesium-sparing properties) (male Wistar rats [3]; i.v.): outstanding diuretic efficacy | K^+ -excretion (male Wistar rats [1]): 0.180 mmol/kg | Na^+ -excretion (male Wistar rats [1]): 2.78 mmol/kg | Volume of urine (male Wistar rats [1]): 0.01598 L/kg

Nc1nc(N)c2nc(-c3ccc(OCC(O)CN4CCCC4)cc3)c(N)nc2n1 (centres unmarked) [IG, 2,4,7-Triamino-6-[4-(2-hydroxy-3-pyrrolidinopropoxy)phenyl]-pteridine]
K^+ -excretion (male Wistar rats [1]): 0.172 mmol/kg | Na^+ -excretion (male Wistar rats [1]): 2.14 mmol/kg | Volume of urine (male Wistar rats [1]): 0.0133 L/kg

Nc1nc(N)c2nc(-c3ccccc3)c(N)nc2n1 [Triamterene, 2,4,7-triamino-6-phenyl-pteridine, reference compound]
ED50 (male Wistar rats [3]; [5]): 1.87 µmol/kg | ED50 (male Wistar rats [3]; [6]): 4.4 µmol/kg | K^+ -excretion (male Wistar rats [1]): 0.402 mmol/kg | Na^+ -excretion (male Wistar rats [1]): 1.17 mmol/kg | Volume of urine (male Wistar rats [1]): 0.00796 L/kg

CCCCN(CCCC)CC(O)COc1ccc(-c2nc3c(N)nc(N)nc3nc2N)cc1 (centres unmarked) [IL, 2,4,7-Triamino-6-[4-(2-hydroxy-3-di-n-butylaminopropoxy)phenyl]-pteridine]
K^+ -excretion (male Wistar rats [1]): 0.191 mmol/kg | Na^+ -excretion (male Wistar rats [1]): 2.34 mmol/kg | Volume of urine (male Wistar rats [1]): 0.01376 L/kg

CC(C)N(CC(O)COc1ccc(-c2nc3c(N)nc(N)nc3nc2N)cc1)C(C)C (centres unmarked) [IK, 2,4,7-Triamino-6-[4-(2-hydroxy-3-diisopropylaminopropoxy)phenyl]-pteridine]
K^+ -excretion (male Wistar rats [1]): 0.191 mmol/kg | Na^+ -excretion (male Wistar rats [1]): 2.08 mmol/kg | Volume of urine (male Wistar rats [1]): 0.01024 L/kg

CCN(CC)CC(O)COc1ccc(-c2nc3c(N)nc(N)nc3nc2N)cc1 (centres unmarked) [IE, 2,4,7-Triamino-6-[4-(2-hydroxy-3-diethylaminopropoxy)phenyl]-pteridine]
K^+ -excretion (male Wistar rats [1]): 0.163 mmol/kg | Na^+ -excretion (male Wistar rats [1]): 2.61 mmol/kg | Volume of urine (male Wistar rats [1]): 0.01102 L/kg

CCNCC(O)COc1ccc(-c2nc3c(N)nc(N)nc3nc2N)cc1 (centres unmarked) [IB, 2,4,7-Triamino-6-[4-(2-hydroxy-3-ethylaminopropoxy)phenyl]-pteridine]
K^+ -excretion (male Wistar rats [1]): 0.161 mmol/kg | Na^+ -excretion (male Wistar rats [1]): 2.98 mmol/kg | Volume of urine (male Wistar rats [1]): 0.01878 L/kg

Nc1nc(N)c2nc(-c3ccc(OCC(O)CN4CCOCC4)cc3)c(N)nc2n1 (centres unmarked) [ID, 2,4,7-Triamino-6-[4-(2-hydroxy-5-morpholinopropoxy)phenyl]-pteridine]
K^+ -excretion (male Wistar rats [1]): 0.237 mmol/kg | Na^+ -excretion (male Wistar rats [1]): 2.78 mmol/kg | Volume of urine (male Wistar rats [1]): 0.0193 L/kg

CCCCNCC(O)COc1ccc(-c2nc3c(N)nc(N)nc3nc2N)cc1 (centres unmarked) [IJ, 2,4,7-Triamino-6-[4-(2-hydroxy-3-n-butylaminopropoxy)phenyl]-pteridine]
K^+ -excretion (male Wistar rats [1]): 0.176 mmol/kg | Na^+ -excretion (male Wistar rats [1]): 2.86 mmol/kg | Volume of urine (male Wistar rats [1]): 0.01859 L/kg

Nc1nc(N)c2nc(-c3ccc(OCCCCC(=O)O)cc3)c(N)nc2n1 [Val-O-TA, 2,4,7-triamino-6-[4-(4-carboxybutoxy)phenyl]-pteridine]
diuretic, natriuretic, and antikaliuretic activity ([4]; administered intravenously): exhibit diuretic, natriuretic, and antikaliuretic activity | compensation of kaliuresis produced by furosemide ([4]; with Val-O-TA): compensated practically fully

CN(C)CCCOc1ccc(-c2nc3c(N)nc(N)nc3nc2N)cc1 [DES-OH, 2,4,7-triamino-6-[4-(3-dimethylaminopropoxy)phenyl]-pteridine, reference compound]
ED50 (male Wistar rats [3]; [5]): 0.54 µmol/kg | ED50 (male Wistar rats [3]; [6]): 5.53 µmol/kg

CC(C)NCC(O)COc1ccc(-c2nc3c(N)nc(N)nc3nc2N)cc1 (centres unmarked) [IH, 2,4,7-Triamino-6-[4-(2-hydroxy-3-isopropylaminopropoxy)phenyl]-pteridine]
K^+ -excretion (male Wistar rats [1]): 0.161 mmol/kg | Na^+ -excretion (male Wistar rats [1]): 2.49 mmol/kg | Volume of urine (male Wistar rats [1]): 0.01474 L/kg
